Consider 18 compounds from patent US11345710B2, “Imidazo[1,2-b]pyrimido[4,5-d]pyridazin-5(6H)-ones and the use thereof” (IMPACT THERAPEUTICS (SHANGHAI), INC, priority 2017, dated 2022).

Like-named read-outs stand apart in the source and are kept apart here.

One test concerns the target Wee1 kinase (h) (Homo sapiens, UniProt P30291). The test is described as follows: Wee1 kinase (h) detection method, [γ-33P]-ATP filter assay. It counts as biochemical. To be noted: 10 μM ATP, 40 minutes at room temperature. The method, then: Wee1 kinase (h) was incubated with 20 mM Tris/HCl pH 8.5, 0.2 mM EDTA, 500 μM […], 10 mM MgAcetate and 10 μM [γ-^33P]-ATP. Then the stock solution of all compounds under test with 50× concentration in 100% DMSO was added to make the final concentration of 1/0.1/0.01 μM, and then mixed the mixture well. The reaction was initiated by the addition of the Mg/ATP mix. After incubation for 40 minutes at room temperature, the reaction was stopped by the addition of phosphoric acid to a concentration of 0.5%. 10 μL of the reaction liquor was then spotted onto a P30 filtermat and washed four times in 0.425% phosphoric acid and once in methanol prior to drying and scintillation counting. Each compound sample was duplicated in duplicate. The negative control was lack of all the components of Wee1 enzyme, and the positive was addition of 30% phosphoric acid to terminate the reaction. The Wee1 inhibitor AZD1775 was detected at 10/0.01 μM at the same experiment condition.

The subject of a further test is LoVo cells. The test is described as follows: MTT based cell viability assay on LoVo cells. To be noted: read-out: IC50, growth inhibition on LoVo cells.
For a further test, the system named is NCI-H1299 cells. The test is described as follows: MTT based cell viability assay on NCI-H1299 cells. To be noted: read-out: IC50, growth inhibition on NCI-H1299 cells. In outline:
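NCI-H1299 cells (1000/well) were plated overnight, then given a seven-point serial compound dilution plus DMSO control for 3 d at 37 °C, 5% CO2. Viability was read by MTT (0.5 mg/mL, 4 h, DMSO-solubilised) at 552/630/690 nm. IC50 came from a sigmoidal fit of survival versus concentration.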

Where [1] appears, read: Homo sapiens, 72 h, LoVo cells, 3 d, MTT.
The mark [2] stands for this setting: Homo sapiens, 72 h, NCI-H1299 cells, 3 d, MTT.

Sequence of Wee1 kinase (h) (P30291 whole entry): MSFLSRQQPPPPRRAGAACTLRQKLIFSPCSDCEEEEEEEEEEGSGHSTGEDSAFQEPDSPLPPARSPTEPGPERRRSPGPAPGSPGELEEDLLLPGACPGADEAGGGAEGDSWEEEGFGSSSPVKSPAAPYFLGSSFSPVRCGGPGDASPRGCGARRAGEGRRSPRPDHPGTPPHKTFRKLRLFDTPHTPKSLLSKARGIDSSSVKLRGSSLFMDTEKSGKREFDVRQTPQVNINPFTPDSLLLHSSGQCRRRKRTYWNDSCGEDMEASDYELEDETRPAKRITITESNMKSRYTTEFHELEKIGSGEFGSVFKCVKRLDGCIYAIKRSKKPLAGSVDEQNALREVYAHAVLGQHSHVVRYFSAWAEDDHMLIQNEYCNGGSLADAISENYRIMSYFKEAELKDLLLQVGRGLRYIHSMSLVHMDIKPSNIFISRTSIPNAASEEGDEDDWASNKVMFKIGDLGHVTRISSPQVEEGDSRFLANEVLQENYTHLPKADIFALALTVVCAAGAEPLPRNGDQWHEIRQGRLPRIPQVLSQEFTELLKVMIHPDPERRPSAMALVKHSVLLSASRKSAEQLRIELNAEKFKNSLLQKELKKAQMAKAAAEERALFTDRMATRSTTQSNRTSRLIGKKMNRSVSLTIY

On to `Cc1cc(Nc2ncc3c(=O)n(-c4c(Cl)cccc4Cl)n4ccnc4c3n2)ccc1N1C[C@@H](C)N(C(C)C)[C@@H](C)C1` [Example 34, 6-(2,6-dichlorophenyl)-2-((3-methyl-4-((3S,5R)-4-isopropyl-3,5-dimethylpiperazin-1-yl)phenyl)amino)imidazo[1,2-b]pyrimido[4,5-d]pyridazin-5(6H)-one], for which the “Inh. (%) of Wee1 kinase” value on Wee1 kinase (h) (C 0.01 μm) is given as 21%. Moreover, the IC50 in the test with LoVo cells (Homo sapiens, LoVo, 72 h) amounted to 0.236 µM; in the test on NCI-H1299 cells (Homo sapiens, NCI-H1299, 72 h), 0.219 µM.
As to `CN(C)C1CCN(c2ccc(Nc3ncc4c(=O)n(-c5c(Cl)cccc5Cl)n5ccnc5c4n3)cc2Cl)CC1` [Example 35, 6-(2,6-dichlorophenyl)-2-((3-chloro-4-(4-(dimethylamino)piperidin-1-yl)phenyl)amino)imidazo[1,2-b]pyrimido[4,5-d]pyridazin-5(6H)-one], the figures for the “Inh. (%) of Wee1 kinase” value at Wee1 kinase (h) (C 0.01 μm) and on Wee1 kinase (h) (C 1 μm) were 4% and 96%, respectively. Also, the IC50 came to 0.302 µM with LoVo cells (Homo sapiens, LoVo, 72 h) and 0.182 µM in the test with NCI-H1299 cells (Homo sapiens, NCI-H1299, 72 h).
For `Cc1cc(Nc2ncc3c(=O)n(-c4c(Cl)cccc4Cl)n4ccnc4c3n2)ccc1N1CCC(N(C)C)CC1` [Example 36, 6-(2,6-dichlorophenyl)-2-((3-methyl-4-(4-(dimethylamino)piperidin-1-yl)phenyl)amino)imidazo[1,2-b]pyrimido[4,5-d]pyridazin-5(6H)-one], in that order: 22%, 98%, 0.206 µM and 0.135 µM.
For `Cc1cc(Nc2ncc3c(=O)n(-c4c(Cl)cccc4Cl)n4ccnc4c3n2)cc(F)c1N1CCC(N(C)C)CC1` [Example 37, 6-(2,6-dichlorophenyl)-2-((3-fluoro-5-methyl-4-(4-(dimethylamino)piperidin-1-yl)phenyl)amino)imidazo[1,2-b]pyrimido[4,5-d]pyridazin-5(6H)-one], in that order: 13%, 96%, 0.291 µM and 0.187 µM.
On to `COc1cc(Nc2ncc3c(=O)n(-c4c(Cl)cccc4Cl)n4ccnc4c3n2)cc(Cl)c1N1CCC(N(C)C)CC1` [Example 38, 6-(2,6-dichlorophenyl)-2-((3-chloro-5-methoxy-4-(4-(dimethylamino)piperidin-1-yl)phenyl)amino)imidazo[1,2-b]pyrimido[4,5-d]pyridazin-5(6H)-one], for which the “Inh. (%) of Wee1 kinase” value on Wee1 kinase (h) (C 0.01 μm) was 11%. The IC50 in the test on LoVo cells (Homo sapiens, LoVo, 72 h) worked out at 0.416 µM; in the test with NCI-H1299 cells (Homo sapiens, NCI-H1299, 72 h) it was 0.978 µM.
As for `Cc1cc(Nc2ncc3c(=O)n(-c4c(Cl)cccc4Cl)n4ccnc4c3n2)cc2c1C(C)(C)CN(C)C2` [Example 43, 6-(2,6-dichlorophenyl)-2-((2,4,4,4,5-tetramethyl-1,2,3,4-tetrahydroisoquinolin-7-yl)amino)imidazo[1,2-b]pyrimido[4,5-d]pyridazin-5(6H)-one], the “Inh. (%) of Wee1 kinase” value at Wee1 kinase (h) (C 0.01 μm) stood at 9%. Moreover, the IC50 with LoVo cells (LoVo cells, 3 d, MTT) turned out to be 0.476 µM; in the test on NCI-H1299 cells (NCI-H1299 cells, 3 d, MTT), 0.175 µM.
Regarding `Cc1cc(Nc2ncc3c(=O)n(-c4c(Cl)cccc4Cl)n4ccnc4c3n2)cc2c1CCN(C)C2` [Example 44, 6-(2,6-dichlorophenyl)-2-((2,5-dimethyl-1,2,3,4-tetrahydroisoquinolin-7-yl)amino)imidazo[1,2-b]pyrimido[4,5-d]pyridazin-5(6H)-one], on Wee1 kinase (h) (C 0.01 μm), the “Inh. (%) of Wee1 kinase” value came to 4%. The IC50 in the test with LoVo cells (Homo sapiens, LoVo, 72 h) amounted to 0.371 µM; with NCI-H1299 cells (Homo sapiens, NCI-H1299, 72 h) it was 0.164 µM.
For `Cc1cc(Nc2ncc3c(=O)n(-c4c(F)cccc4Br)n4ccnc4c3n2)ccc1N1CCC(N(C)C)CC1` [Example 45, 6-(2-bromo-6-fluorophenyl)-2-((3-methyl-4-(4-(dimethylamino)piperidin-1-yl)phenyl)amino)imidazo[1,2-b]pyrimido[4,5-d]pyridazin-5(6H)-one], on Wee1 kinase (h) (C 0.01 μm), the “Inh. (%) of Wee1 kinase” value stood at 12%. The IC50 in the test with LoVo cells (setting [1]) turned out to be 0.333 µM; in the test on NCI-H1299 cells (setting [2]) it was 0.27 µM.
As to `Cc1cc(Nc2ncc3c(=O)n(-c4c(Cl)cccc4Br)n4ccnc4c3n2)ccc1N1CCN(C)CC1` [Example 46, 6-(2-bromo-6-chlorophenyl)-2-((3-methyl-4-(4-methylpiperazin-1-yl)phenyl)amino)imidazo[1,2-b]pyrimido[4,5-d]pyridazin-5(6H)-one], the “Inh. (%) of Wee1 kinase” value turned out to be 17% at Wee1 kinase (h) (C 0.01 μm) and 92% on Wee1 kinase (h) (C 1 μm). The IC50 in the test with LoVo cells (setting [1]) amounted to 0.242 µM; with NCI-H1299 cells (setting [2]) it was 0.271 µM.
As for `CN1CCN(c2ccc(Nc3ncc4c(=O)n(-c5c(Cl)cccc5Br)n5ccnc5c4n3)cc2Cl)CC1` [Example 47, 6-(2-bromo-6-chlorophenyl)-2-((3-chloro-4-(4-methylpiperazin-1-yl)phenyl)amino)imidazo[1,2-b]pyrimido[4,5-d]pyridazin-5(6H)-one], the “Inh. (%) of Wee1 kinase” value on Wee1 kinase (h) (C 1 μm) amounted to 96%. The IC50 with LoVo cells (setting [1]) amounted to 0.37 µM; in the test with NCI-H1299 cells (setting [2]), 0.562 µM.
Turning to `CN(C)C1CCN(c2ccc(Nc3ncc4c(=O)n(-c5c(Cl)cccc5Br)n5ccnc5c4n3)cc2Cl)CC1` [Example 48, 6-(2-bromo-6-chlorophenyl)-2-((3-chloro-4-(4-(dimethylamino)piperidin-1-yl)phenyl)amino)imidazo[1,2-b]pyrimido[4,5-d]pyridazin-5(6H)-one], the “Inh. (%) of Wee1 kinase” value at Wee1 kinase (h) (C 0.01 μm) is 23%; on Wee1 kinase (h) (C 1 μm), 93%. Also, the IC50 was 0.227 µM with LoVo cells (setting [1]) and 0.281 µM in the test on NCI-H1299 cells (setting [2]).
Consider `Cc1cc(Nc2ncc3c(=O)n(-c4c(Cl)cccc4Br)n4ccnc4c3n2)ccc1N1CCC(N(C)C)CC1` [Example 49, 6-(2-bromo-6-chlorophenyl)-2-((3-methyl-4-(4-(dimethylamino)piperidin-1-yl)phenyl)amino)imidazo[1,2-b]pyrimido[4,5-d]pyridazin-5(6H)-one], for which the “Inh. (%) of Wee1 kinase” value at Wee1 kinase (h) (C 1 μm) was 91%. Moreover, the half-maximal inhibitory concentration (IC50) with LoVo cells (setting [1]) amounted to 0.272 µM; in the test with NCI-H1299 cells (setting [2]) it was 0.337 µM.
For `Cc1cc(Nc2ncc3c(=O)n(-c4c(Cl)cccc4Br)n4ccnc4c3n2)cc(F)c1N1CCC(N(C)C)CC1` [Example 50, 6-(2-bromo-6-chlorophenyl)-2-((3-fluoro-5-methyl-4-(4-(dimethylamino)piperidin-1-yl)phenyl)amino)imidazo[1,2-b]pyrimido[4,5-d]pyridazin-5(6H)-one], in that order: 94%, 0.324 µM and 0.501 µM.
For `Cc1cccc(F)c1-n1c(=O)c2cnc(Nc3ccc(N4CCN(C)CC4)c(Cl)c3)nc2c2nccn21` [Example 51, 6-(2-fluoro-6-methylphenyl)-2-((3-chloro-4-(4-methylpiperazin-1-yl)phenyl)amino)imidazo[1,2-b]pyrimido[4,5-d]pyridazin-5(6H)-one], in that order: 88%, 0.998 µM and 1.22 µM.
As for `Cc1cc(Nc2ncc3c(=O)n(-c4c(C)cccc4F)n4ccnc4c3n2)cc(Cl)c1N1CCN(C)CC1` [Example 52, 6-(2-fluoro-6-methylphenyl)-2-((3-chloro-5-methyl-4-(4-methylpiperazin-1-yl)phenyl)amino)imidazo[1,2-b]pyrimido[4,5-d]pyridazin-5(6H)-one], the “Inh. (%) of Wee1 kinase” value on Wee1 kinase (h) (C 1 μm) is given as 78%. The IC50 in the test on LoVo cells (setting [1]) worked out at 0.756 µM; with NCI-H1299 cells (setting [2]), 0.809 µM.
Regarding `Cc1cccc(Cl)c1-n1c(=O)c2cnc(Nc3ccc(N4CCN(C)CC4)c(Cl)c3)nc2c2nccn21` [Example 53, 6-(2-chloro-6-methylphenyl)-2-((3-chloro-4-(4-methylpiperazin-1-yl)phenyl)amino)imidazo[1,2-b]pyrimido[4,5-d]pyridazin-5(6H)-one], the “Inh. (%) of Wee1 kinase” value at Wee1 kinase (h) (C 0.01 μm) stood at 12%; on Wee1 kinase (h) (C 0.1 μm), 69%; on Wee1 kinase (h) (C 1 μm), 94%. Also, the values for the IC50 in the test with LoVo cells (setting [1]) and with NCI-H1299 cells (setting [2]) were 0.642 µM and 0.809 µM, respectively.
Turning to `Cc1cc(Nc2ncc3c(=O)n(-c4c(C)cccc4Cl)n4ccnc4c3n2)cc(F)c1N1CCN(C)CC1` [Example 54, 6-(2-chloro-6-methylphenyl)-2-((3-fluoro-5-methyl-4-(4-methylpiperazin-1-yl)phenyl)amino)imidazo[1,2-b]pyrimido[4,5-d]pyridazin-5(6H)-one], the “Inh. (%) of Wee1 kinase” value on Wee1 kinase (h) (C 1 μm) came out at 91%. The IC50 with LoVo cells (setting [1]) stood at 0.637 µM; in the test on NCI-H1299 cells (setting [2]), 0.419 µM.
In the case of `Cc1cc(Nc2ncc3c(=O)n(-c4c(C)cccc4Cl)n4ccnc4c3n2)cc(Cl)c1N1CCN(C)CC1` [Example 55, 6-(2-chloro-6-methylphenyl)-2-((3-chloro-5-methyl-4-(4-methylpiperazin-1-yl)phenyl)amino)imidazo[1,2-b]pyrimido[4,5-d]pyridazin-5(6H)-one], the figures for the “Inh. (%) of Wee1 kinase” value on Wee1 kinase (h) (C 0.01 μm), at Wee1 kinase (h) (C 0.1 μm) and at Wee1 kinase (h) (C 1 μm) were 0%, 46% and 89%, respectively. Besides, the figures for the IC50 in the test with LoVo cells (setting [1]) and with NCI-H1299 cells (setting [2]) were 0.56 µM and 0.663 µM, respectively.

As a reminder, the IC50 is the concentration at which inhibition is half-maximal.
